According to DBAASP:
≈ marks a conversion by molar mass, not a printed value.

Experiments:
Experiment in all cases: ≥ marks a high value that may be exact or a test limit, other limits are often not marked, values filed in µg/mL are converted to µM
[1] = system: Salmonella typhimurium CMCC 50013
[2] = system: Cryptococcus neoformans ATCC 32045
[3] = system: Streptococcus pyogenes ATCC 12344
[4] = system: Aspergillus niger ATCC 6275
[5] = system: Aspergillus flavus ATCC 9643
[6] = system: Candida albicans ATCC 10231
[7] = system: Listeria monocytogenes CMCC 54002
[8] = system: Trichophyton rubrum ATCC 28188
[9] = system: Saccharomyces cerevisiae ATCC 9763
[10] = system: Shigella dysenteriae CMCC 51302
[11] = system: Enterococcus faecalis ATCC 29212
[12] = system: Pseudomonas aeruginosa ATCC 27853
[13] = system: Escherichia coli ATCC 35218
[14] = system: Staphylococcus aureus ATCC 25325
[15] = system: Bacillus subtilis ATCC 6633
[16] = system: Pseudomonas aeruginosa ATCC 25668
Escherichia coli = system: Escherichia coli
Acinetobacter sp. = system: Acinetobacter sp.
[17] = system: Escherichia coli ATCC 11775
Pseudomonas aeruginosa = system: Pseudomonas aeruginosa
[18] = system: Escherichia coli ATCC 25922
Bibersteinia trehalosi = system: Bibersteinia trehalosi
[19] = system: Mannheimia haemolytica Serovar 1
[20] = system: Staphylococcus aureus ATCC 43300
[21] = system: Corynebacterium pseudotuberculosis ATCC 19410
[22] = system: Streptococcus mutans Ingbritt
[23] = system: Mannheimia haemolytica Serovar 6
Staphylococcus aureus = system: Staphylococcus aureus
Pasteurella multocida = system: Pasteurella multocida
[24] = system: Mannheimia haemolytica Serovar 2
[25] = system: Salmonella enterica subsp. arizonae
[26] = system: Fusobacterium nucleatum ATCC 25586
[27] = system: Acinetobacter baumannii ATCC 19606
Aspergillus fumigatus = system: Aspergillus fumigatus
[28] = system: Klebsiella pneumoniae ATCC 13883
[29] = system: Staphylococcus aureus ATCC 29213
[30] = system: Klebsiella aerogenes ATCC 13048
Klebsiella pneumoniae = system: Klebsiella pneumoniae
[31] = system: Bacillus anthracis Sterne 34F2
[32] = system: Bacillus subtilis ATCC 9372
[33] = system: Burkholderia thailandensis
[34] = system: Staphylococcus epidermidis ATCC 12228
[35] = system: Serratia marcescens ATCC 8100
Bacillus megaterium Bm11 = system: Bacillus megaterium Bm11
Escherichia coli ML-35 = system: Escherichia coli ML-35
[36] = system: Salmonella enterica subsp. enterica serovar Typhimurium ATCC 14028
Escherichia coli D21 = system: Escherichia coli D21

For `CC(C)C[C@H](NC(=O)CN)C(=O)N[C@@H](C)C(=O)N[C@@H](CCCN=C(N)N)C(=O)N[C@@H](C)C(=O)N[C@@H](CC(C)C)C(=O)N[C@H](C(=O)N[C@@H](CCCN=C(N)N)C(=O)N[C@@H](CC(C)C)C(=O)N[C@@H](CC(C)C)C(=O)N[C@@H](CCCN=C(N)N)C(=O)N[C@@H](CCC(N)=O)C(=O)N[C@@H](CC(C)C)C(=O)N[C@H](C(=O)N[C@@H](CCCN=C(N)N)C(=O)N[C@@H](CCC(N)=O)C(=O)N[C@@H](CC(C)C)C(=O)N[C@H](C(=O)N[C@@H](CCCN=C(N)N)C(=O)N[C@@H](C)C(=O)O)[C@@H](C)O)[C@@H](C)O)[C@@H](C)O` [GLARALTRLLRQLTRQLTRA], the MIC [1] was 2 µM (≈ 4.62 µg/mL), the MIC [2] was 16 µM (≈ 36.9 µg/mL) and the MIC [3] was 4 µM (≈ 9.23 µg/mL). The MIC [4] was at least 32 µM, the MIC [5] was 8 µM (≈ 18.5 µg/mL) and the MIC [6] was 8 µM (≈ 18.5 µg/mL). It also gave an MIC [7] of 4 µM (≈ 9.23 µg/mL), an MIC [8] of at least 32 µM and an MIC [9] of 16 µM (≈ 36.9 µg/mL). For the same compound, the MIC [10] was 4 µM (≈ 9.23 µg/mL).

For `CC(C)[C@H](NC(=O)[C@H](Cc1cnc[nH]1)NC(=O)[C@H](C)NC(=O)[C@H](C)NC(=O)[C@H](CCCCN)NC(=O)[C@H](CCCCN)NC(=O)[C@H](Cc1ccccc1)NC(=O)[C@H](Cc1ccccc1)NC(=O)[C@H](CO)NC(=O)CNC(=O)[C@H](Cc1c[nH]c2ccccc12)NC(=O)CN)C(=O)NCC(=O)O` [GWGSFFKKAAHVG], the MIC [11] was 57 µM (≈ 79.3 µg/mL), the MIC [12] was 52 µM (≈ 72.4 µg/mL) and the MIC [13] was at least 43.6 µM. The MIC [14] was at least 58 µM.

Compound `CC[C@H](C)[C@H](NC(C)=O)C(=O)N[C@@H](CCCCN)C(=O)N[C@@H](Cc1c[nH]c2ccccc12)C(=O)N[C@@H](C)C(=O)NCC(=O)N[C@@H](CCCCN)C(=O)N[C@@H](Cc1c[nH]c2ccccc12)C(=O)N[C@@H](Cc1c[nH]c2ccccc12)C(=O)N[C@@H](CCCCN)C(=O)N[C@@H](CC(C)C)C(=O)N[C@@H](Cc1ccccc1)C(=O)N[C@@H](CCCCN)C(N)=O` [IKWAGKWWKLFK] has an MIC [15] of 2.51 µM (≈ 4.1 µg/mL), an MIC [16] of 0.629 µM (≈ 1.03 µg/mL) and an MIC (Escherichia coli) of 1.26 µM (≈ 2.05 µg/mL). For the same compound, the MIC (Acinetobacter sp.) was 2.51 µM (≈ 4.1 µg/mL) and the MIC [17] was 0.629 µM (≈ 1.03 µg/mL).

`CC[C@H](C)[C@H](NC(=O)[C@H](CCCN=C(N)N)NC(=O)[C@H](CCCN=C(N)N)NC(=O)[C@H](CC(C)C)NC(=O)[C@H](CC(N)=O)NC(=O)[C@@H](N)CCCCN)C(=O)N[C@H](C(=O)N[C@@H](CCCN=C(N)N)C(=O)N[C@@H](CCCCN)C(=O)N[C@H](C(=O)N[C@H](C(=O)N[C@@H](Cc1cnc[nH]1)C(=O)N[C@H](C(=O)N[C@H](C(=O)N[C@@H](CCCCN)C(=O)N[C@@H](CCCCN)C(=O)N[C@@H](Cc1ccc(O)cc1)C(=O)NCC(=O)O)[C@@H](C)CC)[C@@H](C)CC)[C@@H](C)CC)[C@@H](C)CC)[C@@H](C)CC` [KNLRRIIRKIIHIIKKYG] gave an MIC (Pseudomonas aeruginosa) of 0.625 µM (≈ 1.41 µg/mL), an MIC [18] of 9.6 µM (≈ 21.7 µg/mL) and an MIC (Bibersteinia trehalosi) of 1.02 µM (≈ 2.3 µg/mL). For the same compound, the MIC [11] was 78.8 µM (≈ 178 µg/mL), the MIC [19] was 0.663 µM (≈ 1.5 µg/mL) and the MIC [20] was over 250 µM. It also gave an MIC [21] of 8.84 µM (≈ 20 µg/mL), an MIC [22] of 16.5 µM (≈ 37.3 µg/mL) and an MIC [23] of 0.0884 µM (≈ 0.2 µg/mL). The MIC (Staphylococcus aureus) was 6.63 µM (≈ 15 µg/mL), the MIC (Pasteurella multocida) was 0.265 µM (≈ 0.6 µg/mL) and the MIC [24] was 0.265 µM (≈ 0.6 µg/mL). The MIC [25] was 2.96 µM (≈ 6.7 µg/mL), the MIC [26] was 4.2 µM (≈ 9.5 µg/mL) and the MIC [27] was 2.6 µM (≈ 5.88 µg/mL). It also gave an MIC (Aspergillus fumigatus) of 4.42 µM (≈ 10 µg/mL), an MIC [28] of 7.7 µM (≈ 17.4 µg/mL) and an MIC [29] of 138 µM (≈ 313 µg/mL). The MIC [30] was at least 45.9 µM and the MIC (Klebsiella pneumoniae) was 0.353 µM (≈ 0.8 µg/mL).

`CSCC[C@H](NC(=O)[C@@H](NC(=O)[C@H](CC(N)=O)NC(C)=O)C(C)C)C(=O)N[C@H](C(=O)N[C@@H](Cc1ccc(O)cc1)C(=O)N[C@@H](Cc1c[nH]c2ccccc12)C(=O)N[C@@H](Cc1c[nH]c2ccccc12)C(=O)N[C@@H](CC(C)C)C(=O)N[C@@H](CC(=O)O)C(=O)N1CCC[C@H]1C(=O)N1CCC[C@H]1C(=O)N[C@@H](CC(C)C)C(N)=O)[C@@H](C)O` [NVMTYWWLDPPL] showed an MIC [31] of at least 100 µM, an MIC [32] of at least 100 µM and an MIC [33] of at least 50 µM.

Work on `CC(C)C[C@H](NC(=O)[C@H](Cc1ccc(O)cc1)NC(=O)[C@@H]1CCCN1C(=O)[C@@H]1CCCN1C(=O)[C@H](CCCN=C(N)N)NC(=O)[C@@H]1CCCN1C(=O)[C@H](CCCN=C(N)N)NC(=O)[C@H](CCCN=C(N)N)NC(=O)[C@@H](N)CCCN=C(N)N)C(=O)N1CCC[C@H]1C(=O)N[C@@H](CCCN=C(N)N)C(=O)N1CCC[C@H]1C(=O)N[C@@H](CCCN=C(N)N)C(=O)N1CCC[C@H]1C(=O)N1CCC[C@H]1C(=O)O` [RRRPRPPYLPRPRPP] yielded an MIC [34] of over 64 µM, an MIC [35] of 4 µM (≈ 7.65 µg/mL) and an MIC (Bacillus megaterium Bm11) of 8 µM (≈ 15.3 µg/mL). For the same compound, the MIC (Escherichia coli ML-35) was 1 µM (≈ 1.91 µg/mL), the MIC [36] was 0.125 µM (≈ 0.239 µg/mL) and the MIC (Escherichia coli D21) was 0.5 µM (≈ 0.956 µg/mL).
